Source: patent US20250381198A1 (Melt Pharmaceuticals, Inc., priority 2024, published 2025)
Marks after values point to notes of the source that are not given here.

System: subjects undergoing cataract extraction with lens replacement (CELR)
Assay: Phase 3: adverse events (safety analysis set)
Type: in vivo, human
Method: The safety of MELT-300 was performed at baseline, in the course of surgery (intraoperatively), postoperatively on Day 1, and on Day 3+1 day post dose of study medication. Safety assessment included monitoring of AEs, vital sign measurements, and physical examinations.
An overview of adverse events (AEs) is provided in TABLE 57 for the safety analysis set. Reported data includes an overall summary of the presence of any AEs, treatment-emergent ocular adverse events (TEAEs), treatment-related TEAEs, TEAE of special interest (TEAESI), serious AEs (SEAs), and treatment-emergent SAEs (TESAE). Categories were not mutually exclusive. Results include the number of subjects, percent of subjects, and number of events in each category, respectively. A summary of treatment-emergence adverse events (TEAEs) by location, system organ class, and preferred term for the safety analysis set is provided in TABLE 58. A summary of treatment-related treatment-emergent adverse events (TRTEAEs) by system organ class, and preferred term for the safety analysis set is provided in TABLE 59. No SAEs (overall), TESAEs, or treatment-related TESAEs were observed. No SAEs resulting in death or discontinuation of the study was observed.

[1] = Location: Non-Ocular, Safety Analysis Set
[2] = Location: Non-Ocular, Safety analysis set
[3] = Location: Ocular, Safety Analysis Set
[4] = Location: Ocular, Safety analysis set

Compound: Cc1ncc2n1-c1ccc(Cl)cc1C(c1ccccc1F)=NC2 [Midazolam, 8-chloro-6-(2-fluorophenyl)-1-methyl-4H-imidazo[1,5-a][1,4]benzodiazepine]
- TEAE: Amnesia [1]: 0 n
- TEAE: Anxiety [1]: 0 n
- TEAE: Back pain [1]: 0 n
- TEAE: Balance disorder [1]: 0 n
- TEAE: Blood pressure increased [1]: 0 n
- TEAE: Blood pressure systolic increased [1]: 0 n
- TEAE: Bradycardia [1]: 0 n
- TEAE: Cardiac disorders (System Organ Class) [1]: 0 n
- TEAE: Cough [1]: 0 n
- TEAE: Dental local anaesthesia [1]: 0 n
- TEAE: Dizziness [1]: 0 n
- TEAE: Fatigue [1]: 0 n
- TEAE: Gastrointestinal disorders (System Organ Class) [1]: 0 n
- TEAE: General disorders and administration site conditions (System Organ Class) [1]: 0 n
- TEAE: Hiccups [1]: 0 n
- TEAE: Hypertension [1]: 0 n
- TEAE: Hypoaesthesia oral [1]: 0 n
- TEAE: Infections and infestations (System Organ Class) [1]: 0 n
- TEAE: Injury, poisoning and procedural complications (System Organ Class) [1]: 0 n
- TEAE: Investigations (System Organ Class) [1]: 0 n
- TEAE: Lethargy [1]: 0 n
- TEAE: Musculoskeletal and connective tissue disorders (System Organ Class) [1]: 0 n
- TEAE: Myalgia [1]: 0 n
- TEAE: Nasal Discomfort [1]: 0 n
- TEAE: Nausea [1]: 0 n
- TEAE: Neck pain [1]: 0 n
- TEAE: Oxygen saturation decreased [1]: 0 n
- TEAE: Post procedural hypotension [1]: 0 n
- TEAE: Procedural nausea [1]: 0 n
- TEAE: Procedural vomiting [1]: 0 n
- TEAE: Product after taste [1]: 0 n
- TEAE: Product issues (System Organ Class) [1]: 0 n
- TEAE: Psychiatric disorders (System Organ Class) [1]: 0 n
- TEAE: Pyrexia [1]: 0 n
- TEAE: Sinusitis [1]: 0 n
- TEAE: Surgical and medical procedures (System Organ Class) [1]: 0 n
- TEAE: Tachycardia [1]: 0 n
- TEAE: Taste disorder [1]: 0 n
- TEAE: Vascular disorders (System Organ Class) [1]: 0 n
- Any AE, events [2]: 9 #
- Any AE, subjects [2]: 7 (7.9) n (%)
- Any Grade 3+ TEAE, events [2]: 0 #
- Any Grade 3+ TEAE, subjects [2]: 0 n (%)
- Any SAE, events [2]: 0 #
- Any SAE, subjects [2]: 0 n (%)
- Any TEAE Resulting in Death, events [2]: 0 #
- Any TEAE Resulting in Death, subjects [2]: 0 n (%)
- Any TEAE Resulting in Study Drug Interruption, events [2]: 0 #
- Any TEAE Resulting in Study Drug Interruption, subjects [2]: 0 n (%)
- Any TEAE Resulting in Study Drug Withdrawal, events [2]: 0 #
- Any TEAE Resulting in Study Drug Withdrawal, subjects [2]: 0 n (%)
- Any TEAE, events [2]: 5 #
- Any TEAE, subjects [2]: 4 (4.5) n (%)
- Any TEAESI, events [2]: 2 #
- Any TEAESI, subjects [2]: 2 (2.2) n (%)
- Any TESAE, events [2]: 0 #
- Any TESAE, subjects [2]: 0 n (%)
- Any Treatment-Related TEAE Resulting in Death, events [2]: 0 #
- Any Treatment-Related TEAE Resulting in Death, subjects [2]: 0 n (%)
- Any Treatment-Related TEAE, events [2]: 3 #
- Any Treatment-Related TEAE, subjects [2]: 2 (2.2) n (%)
- Any Treatment-Related TEAESI, events [2]: 1 #
- Any Treatment-Related TEAESI, subjects [2]: 1 (1.1) n (%)
- Any Treatment-Related TESAE, events [2]: 0 #
- Any Treatment-Related TESAE, subjects [2]: 0 n (%)
- Any Unexpected TEAE, events [2]: 0 #
- Any Unexpected TEAE, subjects [2]: 0 n (%)
- Any Unexpected Treatment-Related TEAE, events [2]: 0 #
- Any Unexpected Treatment-Related TEAE, subjects [2]: 0 n (%)
- TEAESI: Abuse-related AEs, events [2]: 0 #
- TEAESI: Abuse-related AEs, subjects [2]: 0 n (%)
- TEAESI: Cardiovascular AEs, events [2]: 1 #
- TEAESI: Cardiovascular AEs, subjects [2]: 1 (1.1) n (%)
- TEAESI: Ketamine emergence delirium, events [2]: 0 #
- TEAESI: Ketamine emergence delirium, subjects [2]: 0 n (%)
- TEAESI: Neurocognitive AEs, events [2]: 0 #
- TEAESI: Neurocognitive AEs, subjects [2]: 0 n (%)
- TEAESI: Oral/pharyngeal AEs, events [2]: 0 #
- TEAESI: Oral/pharyngeal AEs, subjects [2]: 0 n (%)
- TEAESI: Oversedation requiring the use of flumazenil, events [2]: 0 #
- TEAESI: Oversedation requiring the use of flumazenil, subjects [2]: 0 n (%)
- TEAESI: Respiratory AEs, events [2]: 1 #
- TEAESI: Respiratory AEs, subjects [2]: 1 (1.1) n (%)
- TEAE: Abnormal sensation in eye [3]: 0 n
- TEAE: Corneal abrasion [3]: 0 n
- TEAE: Corneal oedema [3]: 0 n
- TEAE: Diplopia [3]: 0 n
- TEAE: General disorders and administration site conditions (System Organ Class) [3]: 0 n
- TEAE: Glare [3]: 0 n
- TEAE: Injury, poisoning and procedural complications (System Organ Class) [3]: 0 n
- TEAE: Installation site pain [3]: 0 n
- TEAE: Lacrimation increased [3]: 0 n
- TEAE: Ocular discomfort [3]: 0 n
- TEAE: Photophobia [3]: 0 n
- TEAE: Photopsia [3]: 0 n
- TEAE: Procedural pain [3]: 0 n
- TEAE: Visual field defect [3]: 0 n
- TEAE: Visual impairment [3]: 0 n
- Any AE, events [4]: 15 #
- Any AE, subjects [4]: 10 (11.2) n (%)
- Any Grade 3+ TEAE, events [4]: 0 #
- Any Grade 3+ TEAE, subjects [4]: 0 n (%)
- Any Grade 3+ Treatment-Related TEAE, events [4]: 0 #
- Any Grade 3+ Treatment-Related TEAE, subjects [4]: 0 n (%)
- Any SAE, events [4]: 0 #
- Any SAE, subjects [4]: 0 n (%)
- Any TEAE Resulting in Death, events [4]: 0 #
- Any TEAE Resulting in Death, subjects [4]: 0 n (%)
- Any TEAE Resulting in Study Drug Interruption, events [4]: 0 #
- Any TEAE Resulting in Study Drug Interruption, subjects [4]: 0 n (%)
- Any TEAE Resulting in Study Drug Withdrawal, events [4]: 0 #
- Any TEAE Resulting in Study Drug Withdrawal, subjects [4]: 0 n (%)
- Any TEAE, events [4]: 15 #
- Any TEAE, subjects [4]: 10 (11.2) n (%)
- Any TEAESI, events [4]: 0 #
- Any TEAESI, subjects [4]: 2 (2.2) n (%)
- Any TESAE, events [4]: 0 #
- Any TESAE, subjects [4]: 0 n (%)
- Any Treatment-Related TEAE, events [4]: 1 #
- Any Treatment-Related TEAE, subjects [4]: 1 (1.1) n (%)
- Any Treatment-Related TEAESI, events [4]: 0 #
- Any Treatment-Related TEAESI, subjects [4]: 0 n (%)
- Any Treatment-Related TESAE, events [4]: 0 #
- Any Treatment-Related TESAE, subjects [4]: 0 n (%)
- Any Unexpected TEAE, events [4]: 9 #
- Any Unexpected TEAE, subjects [4]: 6 (6.7) n (%)
- Any Unexpected Treatment-Related TEAE, events [4]: 0 #
